# Assay results as given in patent US20120178742A1, “METABOTROPIC GLUTAMATE RECEPTOR MODULATORS” (MERZ PHARMA GmbH & CO. KGaA, priority 2009, published 2012).
# Tests used:
# mGluR5 receptors = target: T1, mGluR5 receptors (Rattus norvegicus, UniProt P31424); assay: Cytosolic calcium studies with cultured rat astrocytes; format: cell-based
# T1 construct: Primary astrocyte cultures are prepared from cortices of newborn rats; endogenous in cells; host or cells: primary rat cortical astrocytes (Sprague-Dawley pups)
# Procedure: Primary astrocyte cultures are prepared from cortices of newborn rats as described by Booher and Sensenbrenner (1972, Neurobiology 2(3):97-105). Briefly, Sprague-Dawley rat pups (2-4 d old) are decapitated and neocortices are dissected, disintegrated with a nylon filter (pore size 80 μm) and carefully triturated. The cell suspension is plated on poly-D-lysine pre-coated flasks (Costar, Netherlands) and cultivated in Dulbecco's Modified Eagle's Medium (DMEM, Invitrogen, Germany) supplemented with 10% foetal calf serum (FCS, Sigma, Germany), 4 mM glutamine and […] gentamycin (both Biochrom, Germany) at 37° C. in a humidified atmosphere of 5% CO2/95% air for 7 days with exchanging the medium at day 2 and 6.
# After 7 days in vitro (DIV), cells are shaken overnight at 250 rpm to remove oligodendrocytes and microglia. The next day, astrocytes are rinsed twice with CMF-PBS (calcium- and magnesium-free phosphate buffered saline, Biochrom, Germany), trypsinized and subplated on poly-D-lysine pre-coated 96-well plates (Greiner, Germany) at a density of 40,000 cells/well. 24 h after establishing the secondary culture the astrocytes are rinsed with PBS″ (phosphate buffered saline, Biochrom, Germany) and fed with astrocyte-defined medium (ADM) consisting of DMEM containing 1× G5-supplement (Invitrogen, Germany), 0.5 μg/ml heparan sulfate, and 1.5 μg/ml fibronectin (both Sigma, Germany) (Miller et al., (1993) Brain Res. 618(1):175-8). 3 days later the medium is exchanged and the cells incubated for another 2-3 days, so that at the time of experiments astrocytes are 14-15 DIV.
# The increase of cytosolic calcium after stimulation with the mGluR5 agonist L-quisqualate is measured using a fluorometric imaging plate reader (FLIPR) and the Ca-Kit (both Molecular Devices). Prior to addition of agonist or antagonist the medium is aspirated and cells are loaded for 2 h at RT with 150 μl of loading buffer consisting of Ca-sensitive dye reconstituted in sodium chloride (123 mM), potassium chloride (5.4 mM), magnesium chloride (0.8 mM), calcium chloride (1.8 mM), D-glucose (15 mM), and HEPES (20 mM), pH 7.3. Subsequently, plates are transferred to FLIPR to detect calcium increase with the addition of L-quisqualate (100 nM) measured as relative fluorescence units (RFU). If antagonists are tested, these compounds are pre-incubated for 10 minutes at RT before addition of the respective agonist.
# Thereafter, concentration-response curves for the positive modulator are performed in the presence of a fixed concentration of quisqualate showing the biggest window for potentiation (normally 10-30 nM).
# (§1) The fluorescence signal increase after addition of agonist reflects the increase of cytosolic calcium. Inconsistencies in the amount of cells per well are normalised by using the spatial uniformity correction of the FLIPR operating software Screenworks. The mean of replicated temporal data (n=3-5) is calculated and used for graphical representation. For the evaluation of the pharmacology, the calcium changes in response to different concentrations of agonist or antagonist are determined using a maximum minus minimum (MaxMin) calculation.
# (§2) All responses (RFU-values) are determined as percentage of control (=maximum response). EC50 and IC50 are calculated according the logistic equation using Prism 4.0 (GraphPad Software, USA).
# [1] = target: T2, human metabotropic glutamate receptor mGluR5 (Homo sapiens, UniProt P41594); assay: Cytosolic calcium studies with stably transfected cells (CHO-K1); format: cell-based
# T2 construct: expressed in transfected cells; host or cells: CHO-K1
# Procedure: Functional Assay of mGluR5 Receptors Cytosolic Calcium Studies with Stably Transfected Cells
# Chinese hamster ovary cells (CHO-K1 cells), stably transfected for inducible expression of a human metabotropic glutamate receptor mGluR5, are seeded into black clear bottom 96 well plates at a density of 35.000 cells per well. The standard growth medium used (Dulbecco's modified Eagle Medium, DMEM plus L-proline) contains the appropriate inducer isopropyl-β-D-thiogalactopyranosid (IPTG) to achieve optimal receptor expression. One day after seeding the growth medium is exchanged for reconstituted Ca-Kit (Molecular Devices, USA) and incubated for one hour. Ca-Kit is reconstituted in an assay buffer containing 20 mM HEPES pH 7.4, glutamic-pyruvate transaminase, pyridoxal phosphate and sodium pyruvate in Hank's balanced salt solution (HBBS). Agonistic compounds to the receptor elicit increases in cytosolic calcium which can be measured as increases in fluorescence signals by use of a fluorescence imaging plate reader (Molecular Devices). […] Similarly, for the characterization of positive allosteric modulators, a dilution series of the test compound is added online to 384 well plates containing the described dye loaded cells and after a preincubation time of 5 minutes stimulated by a basal cell concentration of the agonist L-glutamate giving about 20% of the maximal signal.
# as §1, §2
# T2 sequence (P41594 21-1212): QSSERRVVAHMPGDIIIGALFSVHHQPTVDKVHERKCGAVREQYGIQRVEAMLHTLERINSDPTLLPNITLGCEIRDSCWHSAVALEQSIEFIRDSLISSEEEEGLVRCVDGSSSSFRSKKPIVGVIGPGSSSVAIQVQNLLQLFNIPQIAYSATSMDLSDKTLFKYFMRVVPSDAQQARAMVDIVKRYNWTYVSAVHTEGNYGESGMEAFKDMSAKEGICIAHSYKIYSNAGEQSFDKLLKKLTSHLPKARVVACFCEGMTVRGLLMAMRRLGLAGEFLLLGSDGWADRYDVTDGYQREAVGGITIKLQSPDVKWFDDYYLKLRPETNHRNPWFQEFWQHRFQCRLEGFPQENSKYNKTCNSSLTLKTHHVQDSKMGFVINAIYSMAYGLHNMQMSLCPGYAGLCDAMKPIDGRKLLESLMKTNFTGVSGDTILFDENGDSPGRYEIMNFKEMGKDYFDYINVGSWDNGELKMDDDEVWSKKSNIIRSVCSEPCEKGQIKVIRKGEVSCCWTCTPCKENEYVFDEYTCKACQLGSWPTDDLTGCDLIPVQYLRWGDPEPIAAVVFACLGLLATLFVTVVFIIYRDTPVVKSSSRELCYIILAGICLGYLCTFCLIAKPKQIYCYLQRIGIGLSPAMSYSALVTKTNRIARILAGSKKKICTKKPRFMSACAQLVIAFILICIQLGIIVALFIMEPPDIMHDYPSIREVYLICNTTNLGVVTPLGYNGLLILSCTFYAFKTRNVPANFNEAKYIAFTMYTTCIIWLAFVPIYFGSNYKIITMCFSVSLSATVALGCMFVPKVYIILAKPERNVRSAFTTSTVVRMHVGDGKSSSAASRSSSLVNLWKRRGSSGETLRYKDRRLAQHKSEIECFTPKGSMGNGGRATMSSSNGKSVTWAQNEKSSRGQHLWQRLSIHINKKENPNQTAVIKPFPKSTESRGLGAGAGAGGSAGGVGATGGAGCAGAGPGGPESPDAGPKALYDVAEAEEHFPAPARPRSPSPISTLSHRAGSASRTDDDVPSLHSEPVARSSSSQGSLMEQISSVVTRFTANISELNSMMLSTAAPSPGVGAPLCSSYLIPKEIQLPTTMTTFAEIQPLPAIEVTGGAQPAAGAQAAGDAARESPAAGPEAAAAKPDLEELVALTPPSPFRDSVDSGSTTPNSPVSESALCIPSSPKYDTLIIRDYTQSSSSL
# T1 sequence (P31424 21-1203): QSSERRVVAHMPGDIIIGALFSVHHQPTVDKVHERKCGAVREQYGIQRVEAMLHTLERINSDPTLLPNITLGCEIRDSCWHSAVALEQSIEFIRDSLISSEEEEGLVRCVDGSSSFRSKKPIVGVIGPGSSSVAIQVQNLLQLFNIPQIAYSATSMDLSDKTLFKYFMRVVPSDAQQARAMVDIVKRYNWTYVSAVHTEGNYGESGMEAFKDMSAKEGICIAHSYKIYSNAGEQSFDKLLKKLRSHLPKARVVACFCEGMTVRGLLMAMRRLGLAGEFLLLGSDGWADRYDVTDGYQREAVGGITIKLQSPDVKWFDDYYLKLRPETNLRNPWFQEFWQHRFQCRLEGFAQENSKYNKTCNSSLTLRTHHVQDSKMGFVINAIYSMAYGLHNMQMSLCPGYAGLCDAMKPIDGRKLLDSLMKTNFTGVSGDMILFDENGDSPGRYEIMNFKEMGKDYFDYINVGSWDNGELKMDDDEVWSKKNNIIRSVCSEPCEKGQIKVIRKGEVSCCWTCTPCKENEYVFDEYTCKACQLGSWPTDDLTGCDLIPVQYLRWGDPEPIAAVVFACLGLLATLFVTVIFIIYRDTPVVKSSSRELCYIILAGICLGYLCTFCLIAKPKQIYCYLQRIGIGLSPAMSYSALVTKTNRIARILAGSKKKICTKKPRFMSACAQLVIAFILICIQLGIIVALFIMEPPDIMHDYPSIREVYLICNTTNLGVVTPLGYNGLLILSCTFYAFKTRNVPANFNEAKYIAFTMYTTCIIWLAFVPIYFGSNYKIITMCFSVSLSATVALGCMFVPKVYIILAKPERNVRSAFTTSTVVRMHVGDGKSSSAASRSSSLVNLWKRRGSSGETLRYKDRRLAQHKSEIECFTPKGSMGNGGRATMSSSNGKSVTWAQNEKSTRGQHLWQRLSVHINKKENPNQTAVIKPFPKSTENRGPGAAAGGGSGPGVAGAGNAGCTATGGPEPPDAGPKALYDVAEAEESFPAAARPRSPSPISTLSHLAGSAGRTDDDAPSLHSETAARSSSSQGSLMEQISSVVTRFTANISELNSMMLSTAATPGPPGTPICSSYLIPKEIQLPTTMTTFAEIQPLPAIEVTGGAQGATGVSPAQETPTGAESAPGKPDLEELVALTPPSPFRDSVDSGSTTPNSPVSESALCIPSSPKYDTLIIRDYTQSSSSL
EC50 (mGluR5 receptors),EC50 [1],SMILES
89 nM,38 nM,"C(#Cc1cnc2ccnn2c1)c1ccccc1 [Example 1, 6-Phenylethynyl-pyrazolo[1,5-a]pyrimidine]"
650 nM,120 nM,"C(#Cc1cnc2nccnc2c1)C1=CCCCC1 [Example 40, 7-Cyclohex-1-enylethynyl-pyrido[2,3-b]pyrazine]"
24 nM,19 nM,"Fc1ccccc1C#Cc1cnc2cccnc2c1 [Example 68, 3-(2-Fluoro-phenylethynyl)-[1,5]naphthyridine]"
73 nM,10 nM,"C(#Cc1cnc2ncsc2c1)c1ccccc1 [Example 38, 6-Phenylethynyl-thiazolo[4,5-b]pyridine]"
56 nM,65 nM,"Fc1ccccc1C#Cc1cnc2ncsc2c1 [Example 45, 6-(2-Fluoro-phenylethynyl)-thiazolo[4,5-b]pyridine]"
77 nM,36 nM,"Cc1ccc(C#Cc2cnc3cccnc3c2)cc1 [Example 93, 3-(p-Tolylethynyl)-[1,5]naphthyridine]"
2.3 nM,5.5 nM,"Cc1cccc(C#Cc2cnc3cccnc3c2)c1 [Example 95, 3-(m-Tolylethynyl)-[1,5]naphthyridine]"
110 nM,110 nM,"C(#Cc1ccc2ncnn2c1)c1ccccc1 [Example 37, 6-Phenylethynyl-[1,2,4]triazolo[1,5-a]pyridine]"
60 nM,150 nM,"O=C(c1nc2ncc(C#Cc3ccccc3)cc2o1)N1CCCCC1 [Example 43, (6-Phenylethynyl-oxazolo[4,5-b]pyridin-2-yl)-piperidin-1-yl-methanone]"
14 nM,20 nM,"Cc1cccc(C#Cc2cnc3ncsc3c2)c1 [Example 73, 6-(m-Tolylethynyl)thiazolo[4,5-b]pyridine]"
63 nM,120 nM,"Fc1ccc(C#Cc2cnc3ccnn3c2)cc1 [Example 4, 6-(4-Fluoro-phenylethynyl)-pyrazolo[1,5-a]pyrimidine]"
230 nM,130 nM,"C(#Cc1cnc2ncnn2c1)c1ccccc1 [Example 33, 6-Phenylethynyl-[1,2,4]triazolo[1,5-a]pyrimidine]"
1500 nM,1300 nM,"Fc1cccc(C#Cc2cnc3ncnn3c2)c1 [Example 47, 6-(3-Fluoro-phenylethynyl)-[1,2,4]triazolo[1,5-a]pyrimidine]"
50 nM,110 nM,"C(#Cc1cnc2ccnn2c1)C1=CCSCC1 [Example 10, 6-(3,6-Dihydro-2H-thiopyran-4-ylethynyl)-pyrazolo[1,5-a]pyrimidine]"
310 nM,230 nM,"C(#Cc1cnc2cccnc2c1)c1ccncc1 [Example 100, 3-(Pyridin-4-ylethynyl)-1,5-naphthyridine]"
530 nM,2300 nM,"Cc1ccccc1C#Cc1cnc2ncsc2c1 [Example 75, 6-(o-Tolylethynyl)thiazolo[4,5-b]pyridine]"
76 nM,21 nM,"Fc1cccc(C#Cc2cnc3ccnn3c2)c1 [Example 3, 6-(3-Fluoro-phenylethynyl)-pyrazolo[1,5-a]pyrimidine]"

EC50 (mGluR5 receptors),EC50 [1],SMILES
12 nM,9.8 nM,"Fc1ccc(C#Cc2cnc3cccnc3c2)cc1 [Example 69, 3-(4-Fluoro-phenylethynyl)-[1,5]naphthyridine]"
220 nM,310 nM,"Fc1ccc(C#Cc2cnc3ncsc3c2)c(F)c1 [Example 79, 6-((2,4-Difluorophenyl)ethynyl)thiazolo[4,5-b]pyridine]"
320 nM,330 nM,"O=C(c1nc2ncc(C#CC3=CCCCC3)cc2o1)N1CCCCC1 [Example 72, (6-Cyclohex-1-enylethynyl-oxazolo[4,5-b]pyridin-2-yl)-piperidin-1-yl-methanone]"
8.6 nM,6.8 nM,"Fc1cccc(C#Cc2cnc3cccnc3c2)c1 [Example 67, 3-(3-Fluoro-phenylethynyl)-[1,5]naphthyridine]"
480 nM,250 nM,"O=C(c1cc2ccc(C#Cc3ccccc3)cn2n1)N1CCCCC1 [Example 32, (6-Phenylethynyl-pyrazolo[1,5-a]pyridin-2-yl)-piperidin-1-yl-methanone]"
1000 nM,,"Oc1ccc(C#Cc2cnc3nccnc3c2)cc1 [Example 90, 4-(Pyrido[2,3-b]pyrazin-7-ylethynyl)phenol]"
5 nM,,"C(#Cc1cnc2cccnc2c1)c1ccccc1 [Example 41, 3-Phenylethynyl-[1,5]naphthyridine]"
470 nM,740 nM,"Fc1ccccc1C#Cc1ccc2ncnn2c1 [Example 54, 6-(2-Fluoro-phenylethynyl)-[1,2,4]triazolo[1,5-a]pyridine]"
730 nM,550 nM,"Fc1ccc(C#Cc2cnc3nccnc3c2)cc1 [Example 62, 7-(4-Fluoro-phenylethynyl)-pyrido[2,3-b]pyrazine]"
70 nM,23 nM,"C(#Cc1cnc2ccnn2c1)C1=CCCCC1 [Example 8, 6-Cyclohex-1-enylethynyl-pyrazolo[1,5-a]pyrimidine]"
37 nM,23 nM,"Fc1cccc(C#Cc2cnc3ncsc3c2)c1 [Example 44, 6-(3-Fluoro-phenylethynyl)-thiazolo[4,5-b]pyridine]"
1100 nM,,"O=C(c1nc2ccc(C#Cc3ccccc3F)cn2n1)N1CCCCC1 [Example 58, [6-(2-Fluoro-phenylethynyl)-[1,2,4]triazolo[1,5-a]pyridin-2-yl]-piperidin-1-yl-methanone]"
440 nM,660 nM,"Fc1cc(F)cc(C#Cc2cnc3ncsc3c2)c1 [Example 80, 6-((3,5-Difluorophenyl)ethynyl)thiazolo[4,5-b]pyridine]"
210 nM,410 nM,"Cc1ccccc1C#Cc1cnc2cccnc2c1 [Example 94, 3-(o-Tolylethynyl)-[1,5]naphthyridine]"
400 nM,640 nM,"Fc1ccc(C#Cc2ccc3ncnn3c2)cc1 [Example 55, 6-(4-Fluoro-phenylethynyl)-[1,2,4]triazolo[1,5-a]pyridine]"
100 nM,35 nM,"C(#Cc1cnc2nccnc2c1)c1ccccc1 [Example 39, 7-Phenylethynyl-pyrido[2,3-b]pyrazine]"
